Read-outs that look alike come from different tables or passages of the source. Square brackets hold non-standard residues; d marks the D form. Peptide text beside a SMILES is read from it. Aib = CC(C)(N)C(=O)O
Key:
Huh 7 cells = conditions: 80 μM, 24 h, Annexin V-PI FACS
Method: Viable cells, early apoptotic cells, necrotic cells, late apoptotic cells were represented by Q4, Q3, Q2 and Q1 respectively.
(§1) The apoptosis assay was performed according to the manufacturer’s instructions using an Annexin V: Fluorescein Isothiocyanate (FITC) Apoptosis Detection Kit I (BD Pharmingen™). Briefly, Huh 7 or HUVEC cells were seeded in a 12-well plate and allowed to grow for 24 h in medium with 10% FBS. Then, the cells were treated with the different peptides in medium with 5% FBS for 24 h’ incubation. The cells were harvested with 0.25% trypsin/EDTA, washed twice with PBS and suspended in 1 × binding buffer. The suspended cells were treated with FITC-labeled Annexin V and propidium iodide (PI) as the protocol indicated and then analyzed by flow cytometry to determine the apoptotic cells. The cells with positive fluorescence intensity signals for both FITC and PI were used for the apoptotic cell count.

HUVEC cells [1] = assay: Annexin V-FITC/PI cell apoptosis assay, HUVEC; format: cell-based, human; conditions: 80 μM, 24 h, Annexin V-PI FACS
Method: The improved proapoptotic activity of QR-KLU was further confirmed by Annexin V-PI staining through FACS. Viable cells, early apoptotic cells, necrotic cells, late apoptotic cells were represented by Q4, Q3, Q2 and Q1 respectively. […] Besides, QR-KLU induced cell apoptosis in a dose-dependent manner. […] The percentage of apoptotic cells in KLU peptide at 20 μM were about 25% in both Huh7 cells and HUVEC cells.
as §1
Supplementary Figure S2. Cell apoptosis of HUVEC induced by different peptides. HUVEC cells were treated with PBS, 80μM QR, 20μM KLU, 5μM QR-KLU, 10μM QR-KLU for 24 hours before detection by FACS.

HUVEC cells [2] = assay: Wound-healing assay of HUVEC cells; format: cell-based, human; conditions: 24 h
Method: Wound-healing assay was performed according to the protocols reported by Liang et al.. Briefly, HUVEC cells were plated into 12-well plate and grown to create a confluent monolayer. The monolayer was grazed in a straight line to create a “scratch” with a pipette tip. Markings were created close to the scratch to be used as reference points. Then cells were treated with different peptides for 24 h at 37 °C. Images were collected with a Leica DFC480 camera on a phase-contrast microscope equipped with a 10 × objective at room temperature. The free area of the wound was measured by image software. Supplementary Figure S1. Wound healing assay to detect the cell migration influenced by different peptides.

HUVEC cells [3] = assay: Cell viability (CCK8) assay, HUVEC; format: cell-based, human
Method: (§2) All reagents were purchased from Gibco. All these cells were routinely tested for mycoplasma contamination and tested negative and maintained in a humidified incubator containing 5% CO2 at 37 °C. Cell viability for different cell lines were measured by cell counting kit-8 (CCK8) assays. The cells were incubated on a 96-well plate for 24 h in growth medium prior to drug treatment. […] Then CCK8 (10 μL) was added and the cells were incubated for 1 h at 37 °C with 5% CO2. Absorbance was measured with a microplate reader (Bio-Rad) at a wavelength of 450 nm.

Huh7 cells = assay: Cell viability (CCK8) assay, Huh7; format: cell-based, human; conditions: for IC50: CCK8, 48 h treatment in medium with 5% FBS, absorbance 450 nm, mean ± SD, read-out: IC50, cytotoxicity in Huh7 cells
Method: as §2

VX2 liver tumor = assay: VX2 rabbit liver tumor model with TAE/TACE: tumor growth, necrosis, apoptosis, proliferation, angiogenesis; format: in vivo, New Zealand white rabbits; conditions: for mean tumor volume at 7 days after TAE procedure: 0.5 mL lipiodol emulsion into tumor-feeding artery, QR-KLU 4 mg/kg; for mean tumor volume at 7 days after TAE procedure / tumor growth rate (V7/V0 × 100%) / mean tumor necrosis rate: DOX 2 mg/kg, KLU 4 mg/kg; for mean tumor volume at 7 days after TAE procedure / mean tumor volume one day before TAE procedure: MR images, 24 rabbits evenly in four groups; for mean tumor volume at 7 days after TAE procedure / mean tumor necrosis rate / mean tumor volume one day before TAE procedure: mean ± SD; for tumor growth rate (V7/V0 × 100%): 7 days after TAE, NS group 276.4%; for tumor growth rate (V7/V0 × 100%) / mean tumor necrosis rate: QR-KLU 4 mg/kg in lipiodol; for mean proportion of apoptotic cells in tumor (TUNEL) / mean proportion of proliferating cells in tumor (Ki67) / mean tumor necrosis rate: 7 days after treatment; for mean proportion of apoptotic cells in tumor (TUNEL) / mean proportion of proliferating cells in tumor (Ki67): versus NS group; for mean tumor necrosis rate: H&E staining; for mean tumor volume one day before TAE procedure: baseline, V = a*b^2/2, VX2 rabbits
Method: New Zealand white rabbits (2.5-3 kg) were purchased from the Laboratory Animal Center of Tongji Medical College of Huazhong University of Science and Technology (Wuhan, China). All the animal experimental procedures were performed in accordance with the National Institutes of Health Guidelines for the Care and Use of Laboratory Animals and the protocol was approved by the Ethics Committee of Tongji Medical College, Huazhong University of Science and Technology. Blinding was not possible in most animal experiments. The rabbit VX2 liver tumor model was established according to the method reported by Qian K et al.. […] The acquisition parameters of the sequence are as follows: […], TR 2750 ms, TE 65 ms, the field of view 120 mm × 120 mm, Slice thickness 3 mm in the transverse plane, matrix 152 × 152. The multi-vane technique was used to reduce artifacts and improve image quality, acquisition time 3 min […]; […] Seven days after TACE procedure, tumor size was evaluated again by MR scan and the tumor volume was calculated by formula: V = a * b^2/2 (a, long diameter; b, short diameter). And tumor growth rate was calculated by formula: […] Finally, the VX2 rabbits were sacrificed and the tumor tissues were harvested for biochemical analysis and histopathological examination. […] The IHC staining procedures were performed as previously described. Briefly, the sections were blocked in 3% H2O2 for 25 min and then incubated with goat serum for 15 min. Subsequently, the sections were first washed and incubated with anti-VEGF (1:200, Abcam, USA), and anti-CD31 (1:20; Abcam, USA) overnight at 4 °C, and then incubated with second antibody (Abcam, USA) at 37 °C for 50 min. Next, the sections were stained with 3, 3'-diaminobenzidine (DAB, Service bio, Wuhan […] Biotechnology Co., Ltd., China) for 6 min and rinsed and stained in hematoxylin for 30 s. The sections were then dehydrated in gradient alcohol and sealed in neutral resins. VEGF expression was assessed by semiquantitative IHC based on staining intensity and density, the staining intensity was scored as 0 (negative), 1 (weak), 2 (moderate), and 3 (strong), while the staining density was scored on the basis of the percentage of positively stained cells: 0 (0%), 1 (1-25%), 2 (26-50%), 3 (51-75%), and 4 (76-100%). The total VEGF IHC score was calculated by multiplying the intensity score by the density score. Microvessel density (MVD) was calculated according to the method developed by Weidner et al.

[4] = Therapeutic safety in VX2 tumor-bearing rabbits (organ H&E, serum biochemistry); conditions: before and 1, 3, 7 days after treatment; 4 mg/kg in lipiodol via TAE
Method: Twenty-four VX2 tumor-burdened rabbits were evenly divided into four groups. After fasting for 12 h, the rabbits were anesthetized by intravenous injection of pentobarbital sodium solution (2 wt.%, 30 mg/kg). The rabbit’s right femoral artery was dissected and a 4-F Cobra catheter (Cook, Inc., Bloomington, Indiana) was inserted into the celiac artery, hepatic arteriography was then performed under the guidance of digital subtraction angiography (DSA), and a 2.7-F coaxial microcatheter (Terumo, Tokyo, Japan) was super-selectively inserted into the tumor donor branch subsequently. The emulsion of drugs and lipiodol were slowly injected into the tumor-feeding artery through the above microcatheter at a speed of 0.5 mL/min. […] After obtaining all DSA images, the sheaths and catheters were removed.
Seven days after treatment, the liver tumors, hearts, lungs, kidneys and spleens were harvested and fixed in 4% phosphate-buffered paraformaldehyde, the specimens were embedded in paraffin blocks and cut into 5‐μm‐thick sections. Following the manufacturer’s guidelines, the sections were stained with haematoxylin and eosin (H&E) for the evaluation of organ toxicity and tumor necrosis, Ki-67 staining and transfer-mediated dUTP nick end labeling (TUNEL) technique were used to detect tumor proliferation and apoptosis, respectively.
Blood samples were collected before treatment and at 1, 3, 7 days after treatment. The blood samples were stood at room temperature for 30 min, and the serum was obtained by centrifugation (room temperature, 8000 rpm, 10 min) for assessment of alanine aminotransferase (ALT), aspartate aminotransferase (AST), total bilirubin (TBIL) and creatinine (CREA). The assays were performed using the commercially ready-made kits following the manufacturers’ instructions.

Ac-QKRKRKKSRYKS-NH2 [QR]
proapoptotic effect in Huh 7 cells (Huh 7 cells): didn’t show obvious proapoptotic effect | proapoptotic effect in HUVEC cells (HUVEC cells [1]): didn’t show obvious proapoptotic effect | cell proliferation or migration of HUVEC (wound healing) (HUVEC cells [2]; 80 μM): not affected | cellular toxicity in HUVEC cells (HUVEC cells [3]; CCK8, 48 h, up to 80 μM): negligible toxicity | cellular toxicity in Huh7 cells (Huh7 cells; CCK8, 48 h, up to 80 μM): negligible toxicity

COc1cccc2c1C(=O)c1c(O)c3c(c(O)c1C2=O)C[C@@](O)(C(=O)CO)C[C@@H]3O[C@H]1C[C@H](N)[C@H](O)[C@H](C)O1 [DOX, doxorubicin]
mean tumor volume at 7 days after TAE procedure (VX2 liver tumor): 1382.9 ± 563.7 mm^3 | tumor growth rate (V7/V0 × 100%) (VX2 liver tumor): significantly lower than that of the NS group | mean proportion of apoptotic cells in tumor (TUNEL) (VX2 liver tumor): significantly higher than that in NS group | mean proportion of proliferating cells in tumor (Ki67) (VX2 liver tumor): significantly lower than that in NS group | mean tumor necrosis rate (VX2 liver tumor): 81.4% ± 2.3 | mean tumor volume one day before TAE procedure (VX2 liver tumor): 889.0 ± 317.7 mm^3 | IC50 (Huh7 cells; Homo sapiens, Huh-7): 0.243 ± 0.076 µM

CC(=O)N[C@@H](CCCCN)C(=O)N[C@@H](CC(C)C)C(=O)NC(C)(C)C(=O)N[C@@H](CCCCN)C(=O)N[C@@H](CC(C)C)C(=O)NC(C)(C)C(=O)N[C@@H](CCCCN)C(=O)N[C@@H](CCCCN)C(=O)N[C@@H](CC(C)C)C(=O)NC(C)(C)C(=O)N[C@@H](CCCCN)C(=O)N[C@@H](CC(C)C)C(=O)NC(C)(C)C(=O)N[C@@H](CCCCN)C(N)=O [KLU] (Ac-KL[Aib]KL[Aib]KKL[Aib]KL[Aib]K-NH2)
liver and renal toxicity (ALT, AST, TBIL, CREA in serum) [4]: no significant liver or renal toxicity | cell migration of HUVEC (wound epithelial gap) (HUVEC cells [2]; 20 μM): the wound epithelial gap was unchanged or even bigger | IC50 (HUVEC cells [3]; CCK8, 48 h treatment in medium with 5% FBS, absorbance 450 nm, mean ± SD, read-out: IC50, cytotoxicity in HUVEC cells): 33.8 ± 0.98 µM | mean tumor volume at 7 days after TAE procedure (VX2 liver tumor): 1321.4 ± 210.4 mm^3 | tumor growth rate (V7/V0 × 100%) (VX2 liver tumor): significantly lower than that of the NS group | mean proportion of apoptotic cells in tumor (TUNEL) (VX2 liver tumor): significantly higher than that in NS group | mean proportion of proliferating cells in tumor (Ki67) (VX2 liver tumor): significantly lower than that in NS group | mean tumor necrosis rate (VX2 liver tumor): 79.5% ± 8.0 | mean tumor volume one day before TAE procedure (VX2 liver tumor): 991.8 ± 114.2 mm^3 | IC50 (Huh7 cells): 36.3 ± 2.7 µM

Source: PMC9537177, “A VEGFR targeting peptide-drug conjugate (PDC) suppresses tumor angiogenesis in a TACE model for hepatocellular carcinoma therapy” (Cell Death Discovery, 2022)
